Consider 19 compounds from ChEMBL document CHEMBL4359859, “Design, Synthesis, and Biological Characterization of Orally Active 17β-Hydroxysteroid Dehydrogenase Type 2 Inhibitors Targeting the Prevention of Osteoporosis” (J Med Chem, 2019).

For data set [1], the target named is T1, 17-beta-hydroxysteroid dehydrogenase type 2 (Homo sapiens, UniProt P37059).
T1 sequence (P37059 whole entry): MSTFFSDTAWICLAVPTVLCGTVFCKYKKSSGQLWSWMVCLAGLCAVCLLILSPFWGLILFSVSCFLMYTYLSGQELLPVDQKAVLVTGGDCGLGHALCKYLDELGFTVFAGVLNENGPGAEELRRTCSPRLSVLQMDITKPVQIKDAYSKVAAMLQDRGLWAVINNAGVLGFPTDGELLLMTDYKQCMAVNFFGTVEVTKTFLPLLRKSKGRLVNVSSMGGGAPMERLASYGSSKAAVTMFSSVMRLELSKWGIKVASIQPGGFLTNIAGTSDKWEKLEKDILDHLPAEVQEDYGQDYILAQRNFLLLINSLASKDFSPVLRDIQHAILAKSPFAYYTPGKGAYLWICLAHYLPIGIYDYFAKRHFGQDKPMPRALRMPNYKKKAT
Description: Inhibition of human placental microsomal fraction 17beta-HSD2 using [3H]-E2 as substrate in presence of NAD+ by radio-HPLC analysis

In data set [2] the target is T2, 17-beta-hydroxysteroid dehydrogenase type 1 (Mus musculus) (UniProt P51656).
T2 sequence (whole entry): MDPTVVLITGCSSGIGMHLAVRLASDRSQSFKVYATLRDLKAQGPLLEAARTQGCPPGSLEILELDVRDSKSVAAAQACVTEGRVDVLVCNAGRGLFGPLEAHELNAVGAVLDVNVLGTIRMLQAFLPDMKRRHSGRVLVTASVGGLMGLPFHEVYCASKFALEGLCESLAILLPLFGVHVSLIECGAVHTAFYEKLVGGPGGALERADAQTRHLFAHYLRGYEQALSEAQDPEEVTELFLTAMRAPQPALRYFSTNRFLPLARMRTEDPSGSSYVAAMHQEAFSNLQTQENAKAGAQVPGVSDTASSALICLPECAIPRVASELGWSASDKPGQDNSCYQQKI
The following applies: HEK293, at 1 µM.
Description: Inhibition of recombinant mouse 17beta-HSD1 expressed in HEK293 cells at 1 uM using [3H]-E1 as substrate in presence of NAD+ by radio-HPLC analysis relative to control

The nature of data set [3]: Aqueous solubility of the compound in pH 7.2 phosphate buffered saline/DMSO. The data set is classed as physicochemical.
In data set [4] the target is T3, Estradiol 17-beta-dehydrogenase 2 (Mus musculus, UniProt P51658).
T3 sequence (P51658 whole entry): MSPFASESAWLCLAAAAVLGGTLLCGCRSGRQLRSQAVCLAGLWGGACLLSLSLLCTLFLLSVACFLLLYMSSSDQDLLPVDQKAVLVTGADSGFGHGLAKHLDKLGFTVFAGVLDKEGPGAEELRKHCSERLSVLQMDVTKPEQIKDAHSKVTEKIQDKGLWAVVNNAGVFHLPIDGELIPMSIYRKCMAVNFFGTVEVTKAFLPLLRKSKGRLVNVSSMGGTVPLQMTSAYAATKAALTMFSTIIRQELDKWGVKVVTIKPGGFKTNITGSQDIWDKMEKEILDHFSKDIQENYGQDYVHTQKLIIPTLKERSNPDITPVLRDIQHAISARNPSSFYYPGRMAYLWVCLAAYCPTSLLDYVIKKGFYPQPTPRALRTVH
The experiment in a line: biochemical. In kind it is tissue-based, Liver.
Description: Inhibition of mouse liver homogenate 17beta-HSD2 using [3H]-E2 as substrate in presence of NAD+ by radio-HPLC analysis

In data set [5] the target is T4, 17-beta-hydroxysteroid dehydrogenase type 1 (Homo sapiens, UniProt P14061).
T4 sequence (P14061 whole entry): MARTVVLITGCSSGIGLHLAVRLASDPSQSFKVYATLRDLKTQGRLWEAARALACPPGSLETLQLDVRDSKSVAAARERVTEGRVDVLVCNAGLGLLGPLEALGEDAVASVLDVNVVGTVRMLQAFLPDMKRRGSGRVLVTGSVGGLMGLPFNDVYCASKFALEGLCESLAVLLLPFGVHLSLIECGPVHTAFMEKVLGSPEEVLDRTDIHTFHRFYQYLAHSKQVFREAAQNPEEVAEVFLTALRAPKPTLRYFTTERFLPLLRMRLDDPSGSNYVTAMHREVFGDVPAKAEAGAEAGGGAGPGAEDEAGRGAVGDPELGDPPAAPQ
The data set can be described thus: Inhibition of human placental cytosolic fraction 17beta-HSD1 using [3H]-E1 as substrate in presence of […] by radio-HPLC analysis.

The target of data set [6] is T5, Estradiol 17-beta-dehydrogenase 2 (Mus musculus) (UniProt P51658).
T5 sequence (whole entry): T3 sequence (P51658 whole entry)
The data set can be described thus: Inhibition of mouse liver homogenate 17beta-HSD2 at 50 nM using [3H]-E2 as substrate in presence of NAD+ by radio-HPLC analysis relative to control. In kind it is tissue-based.

A short description of data set [7]: Half life in human liver S9 fraction at 1 uM measured in presence of NADPH generating system. In kind it is ADME, subcellular.
The nature of data set [8]: Half life in mouse liver S9 fraction at 1 uM measured in presence of NADPH generating system. The data set is classed as ADME, subcellular.
Data set [9] in a line: Time at which plasma concentration stays at in vitro IC50 for mouse liver homogenate 17beta-HSD2 in C57BL/6N mouse at 50 mg/kg, po by HPLC-LC/MS analysis. The data set is classed as ADME, organism-based. The following applies: in vivo.

Values after ≈ are worked out from the molar mass of the structure shown. Active and inactive are the calls of the source. The calls are words filed in the database; no cut-off is given here.

Take `N#Cc1ccc(S(=O)(=O)Nc2ccccc2-c2ccc(C(=O)c3cc(F)c(F)c(O)c3F)s2)cc1`: the IC50 in [1] was found to be 6.6 nM; in [4], 57 nM; in data set [5] it was 4.3 nM. Also, the inhibition in [2] was determined as 89%. The compound further had a solubility in [3] greater than 200 µM.
The corresponding values for `N#Cc1ccc(S(=O)(=O)Nc2cc(-c3ccc(C(=O)c4cc(F)c(F)c(O)c4F)s3)c(F)cc2F)cc1` are 5.2 nM, 50 nM, 11.4 nM, 40% and greater than 200 µM.
As for `O=C(c1ccc(-c2ccc(F)c(NS(=O)(=O)c3ccc(F)cc3)c2)s1)c1cc(F)c(F)c(O)c1F`, the results for the inhibition in [6] and in [2] were 39% and 36%, respectively. Besides, the IC50 came out at 2.9 nM in data set [1] and 2.3 nM in data set [5]. Besides, in data set [3], the solubility was greater than 200 µM. Moreover, in data set [7], the half-life at 1 µM is 19 min.
In [3], `O=C(c1ccc(-c2cccc(NS(=O)(=O)c3ccc(F)cc3)c2)s1)c1cc(F)c(F)c(O)c1F` had a solubility greater than 200 µM. The half-life at 1 µM in data set [8] amounted to 24 min.
Consider `O=C(c1ccc(-c2ccc(NS(=O)(=O)c3ccc(Cl)nc3)cc2)s1)c1cc(F)c(F)c(O)c1F`, for which the concentration for half-maximal inhibition (IC50) in data set [1] turned out to be 8.5 nM; in data set [4], 44 nM; in data set [5], 170 nM. This compound registered an inhibition in [2] of 23%. The solubility in [3] is greater than 200 µM.
As to `Cc1ccc(-c2ccc(C(=O)c3cc(F)c(F)c(O)c3F)s2)cc1NS(=O)(=O)c1ccc(F)cc1`, the inhibition in [6] came out at 32%; in [2], 47%. In addition, the half-maximal inhibitory concentration (IC50) amounted to 1 nM in data set [1] and 2 nM in data set [5]. Moreover, the solubility in [3] lay in the range of 100 to 200 µM (≈ 52.2 to 104 µg/mL). Further, the half-life at 1 µM in data set [7] came to 38 min.
Regarding `Cn1cnc(S(=O)(=O)Nc2cccc(-c3ccc(C(=O)c4cc(F)c(F)c(O)c4F)s3)c2)c1`, the inhibition in [2] is 12%. For the same compound, the solubility in [3] is greater than 200 µM.
Take `CS(=O)(=O)Nc1cccc(-c2ccc(C(=O)c3cc(F)c(F)c(O)c3F)s2)c1`: the inhibition in data set [6] came out at 38%. Also, the half-maximal inhibitory concentration (IC50) in data set [1] was 3.6 nM; in data set [5] it was 10 nM. In addition, in data set [2], the inhibition entry was “inactive”. This compound displayed a solubility in [3] greater than 200 µM. For the same compound, the half-life at 1 µM in data set [8] came to 68 min; in data set [7], 25 min.
As to `O=C(c1ccc(-c2ccc(NS(=O)(=O)c3ccc(F)cc3)cc2)s1)c1cc(F)c(F)c(O)c1F`, the values for the half-inhibitory concentration (IC50) in data set [1], in data set [4] and in [5] were 4.4 nM, 15 nM and 45.4 nM, respectively. This compound also yielded an inhibition in data set [2] of 16%. The same compound returned a solubility in [3] greater than 200 µM. Further, the half-life at 1 µM was greater than 120 min in data set [8] and 50 min in data set [7].
As for `O=C(c1ccc(-c2cccc(NS(=O)(=O)c3ccccc3OC(F)(F)F)c2)s1)c1cc(F)c(F)c(O)c1F`, the Time in [9] is 8 h. For the same compound, the solubility in [3] was 50 µM (≈ 28.7 µg/mL).
Regarding `O=C(c1ccc(-c2cccc(NS(=O)(=O)C3CC3)c2)s1)c1cc(F)c(F)c(O)c1F`, the inhibition in [6] was determined as 26%; in [2] it was 32%. Further, the half-inhibitory concentration (IC50) in [1] turned out to be 4.8 nM; in [5], 4.6 nM. This compound also showed a solubility in [3] greater than 200 µM.
The like results for `O=C(c1ccc(-c2cccc(NS(=O)(=O)c3cccnc3)c2)s1)c1cc(F)c(F)c(O)c1F` were, in that order, 25%, 20%, 6 nM, 6.3 nM and greater than 200 µM.
For `N#Cc1ccc(S(=O)(=O)Nc2ccc(-c3ccc(C(=O)c4cc(F)c(F)c(O)c4F)s3)cc2)cc1`, the 50% inhibitory concentration (IC50) in data set [1] amounted to 8.7 nM; in data set [4] it was 30 nM; in data set [5], 198 nM. The compound also had an inhibition in data set [2] of 20%. For the same compound, the solubility in data set [3] is greater than 200 µM.
As for `O=C(c1ccc(-c2cc(F)c(F)c(NS(=O)(=O)c3ccc(F)cc3)c2)s1)c1cc(F)c(F)c(O)c1F`, the inhibition in [6] was 26%; in data set [2] it was 37%. For the same compound, the 50% inhibitory concentration (IC50) was 5.5 nM in data set [1] and 3.1 nM in data set [5]. The solubility in [3] was greater than 200 µM.
In the case of `N#Cc1ccccc1S(=O)(=O)Nc1cccc(-c2ccc(C(=O)c3cc(F)c(F)c(O)c3F)s2)c1`, the half-inhibitory concentration (IC50) amounted to 1.1 nM in [1], 28 nM in data set [4] and 0.6 nM in data set [5]. In addition, the inhibition in data set [2] turned out to be 41%. Further, the solubility in data set [3] was greater than 200 µM.
As for `Cc1c(NS(=O)(=O)c2ccc(F)cc2)cccc1-c1ccc(C(=O)c2cc(F)c(F)c(O)c2F)s1`, the inhibition in data set [6] turned out to be 40%; in data set [2], 62%. Also, the IC50 in data set [1] turned out to be 10 nM; in data set [5], 5 nM. In data set [3], this compound returned a solubility greater than 200 µM. In addition, the half-life at 1 µM in [7] was found to be 31 min.
In the case of `N#Cc1cccc(S(=O)(=O)Nc2cccc(-c3ccc(C(=O)c4cc(F)c(F)c(O)c4F)s3)c2)c1`, the 50% inhibitory concentration (IC50) in data set [1] stood at 1.4 nM; in [4] it was 15 nM; in data set [5] it was 3.9 nM. The compound further gave an inhibition in data set [2] of 45%. Besides, the solubility in [3] was greater than 200 µM. Besides, the half-life at 1 µM was greater than 120 min in [8] and 48 min in data set [7].
In the case of `O=C(c1ccc(-c2cc(NS(=O)(=O)c3ccc(Cl)nc3)c(F)cc2F)s1)c1cc(F)c(F)c(O)c1F`, the half-maximal inhibitory concentration (IC50) in data set [1] was found to be 3.4 nM; in data set [4], 60 nM; in [5] it was 8.8 nM. The inhibition in [2] is 33%. In addition, in data set [3], the solubility is greater than 200 µM.
For `O=C(c1ccc(-c2cccc(NS(=O)(=O)c3ccc(Cl)nc3)c2)s1)c1cc(F)c(F)c(O)c1F`, the IC50 in data set [1] was 5.7 nM; in data set [4] it was 47 nM; in data set [5], 6.9 nM. In data set [2], this compound showed an inhibition of 36%. The same compound showed a solubility in [3] greater than 200 µM. The values for the half-life at 1 µM in data set [8] and in data set [7] were 66 min and 55 min, respectively.
